# Patent publication US4057644A, “Active derivatives of methylamine in therapeutic compositions and methods of use” (priority 1976, dated 1977)
# Like-named read-outs stand apart in the source and are kept apart here.
# Tests used:
# [1] = system: neuroleptic-induced catatonia (prochlorperazine); test: Inhibition of neuroleptic-induced catatonia; format: in vivo, rat (male, OFA strain); conditions: rat, oral; for activity compared with amantadine (neuroleptic-induced catatonia): versus amantadine
# Experimental: The blocking of dopaminergic receptors by neuroleptics in the extra-pyramidal system induces catatonia in the rat. Catatonia is differentiated from sedative properties by means of the test used hereabove for reserpine-induced catatonia. The same system of scoring was also employed in the present case.
# An oral dose of the compound to be studied in aqueous solution was administered to batches of 10 male rats of the OFA strain weighing about 150 to 200 g.
# Three hours after the injection of this latter compound, catatonia was measured. An identical trial was also carried out with control animals which received prochlorperazine but none of the compounds under study.
# in vivo = conditions: mouse, po
# mice = conditions: for Index LD50/ED100: LD50 mice oral / dose giving 100% inhibition of catatonia; for Index LD50/ED20-30: LD50 mice oral / dose giving 20 to 30% inhibition of catatonia
# [2] = system: reserpine-induced catatonia; test: Inhibition of reserpine-induced catatonia; format: in vivo, rat (male, OFA strain); conditions: rat, oral
# Experimental: Ater sufficient doses of reserpine have been administered to the rat, a series of symptoms occur, more particularly ptosis, catatonia and a drop in central temperature. These symptoms are caused by the depletion of the intrangranular reserve pool of biogenetic amines at the synaptic terminals.
# An oral dose of the compound to be studied in aqueous solution was administered to batches of 10 male rats of the OFA strain weighing about 150 to 200 g. Thirty minutes later a dose of 5 mg/kg of reserpine was given by intraperitoneal route. Three hours after the injection of reserpine, the animals were suspended by the four paws to a horizontally stretched wire fixed at 15 cm from the ground. The catatonic animals were those which maintained the position so given for at least 30 seconds. […] The maximum score was therefore 10 per batch. An identical trial was undertaken with control animals which received reserpine but none of the compounds being studied.
# [3] = J. Amer. Chem. Soc., 71, 3352 (1949); cited from earlier work
# [4] = J. Amer. Chem. Soc., 71, 3352 (1949); cited from earlier work; remark: listed apart in the source
# [5] = system: norepinephrine effects on arterial pressure and nictitating membrane; conditions: in vivo, iv
# [6] = system: tremorine-induced cholinergic effects; test: Anti-tremorine test; format: in vivo, mice (male, OF1 strain); design: key to central cholinergic effects score (normal and provoked tremor): 0: no action; 1: slight action; 2: average action; 3: strong action; 4: very strong action
# Experimental: When injected into mice, tremorine produces peripheral effects i.e. weeping, sweating, salivation and diarrhoea and central effects i.e. tremor and akinesia. Such effects are due to an increase in the amount of intracerebral acetylcholine and serotonine.
# Male mice of the OF1 strain weighing about 22 g were divided into batches of 10. […] Thirty minutes later a dose of 10 mg/kg of tremorine was injected by intraperitoneal route and, at different times after this injection, note was taken of the cholinergic effects on each animal in accordance with the following scale: […]
# [7] = system: norepinephrine effects on arterial pressure and nictitating membrane; test: Influence on peripheral noradrenergic phenomena (arterial pressure, nictitating membrane); conditions: cat
# electrocardiogram = test: Electrocardiogram; format: in vivo; conditions: dog, injected, 5 mg/kg
# 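Throughout, for Index LD50/ED100: LD50 part of every column derived from compounds dosed in aqueous solution, deaths followed over a 10-day observation period after dosing.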
# 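Throughout, for Index LD50/ED20-30: LD50 part of every column derived from compounds dosed in aqueous solution, deaths followed over a 10-day observation period after dosing.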
# 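Throughout, for LD50: LD50 part of every column derived from compounds dosed in aqueous solution, deaths followed over a 10-day observation period after dosing.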
structure (smiles),measurement,setting,value
"CCCCC(C)(N)CC(C)C (stereo not shown) [Compound 8, 1-Methyl-1-isobutyl-n-pentylamine]",activity compared with amantadine (neuroleptic-induced catatonia),[1],twice as active
C=NC(CCC)(CCC)CCC [Compound 41],LD50 at 240 h,in vivo,> 150 mg/kg
same,Index LD50/ED100,mice,27
"CCCC(CCC)(CCC)N1CCC1 [Compound 29, N,n-trimethylene-1,1-di-n-propyl-n-butylamine]",LD50 at 240 h,in vivo,65 mg/kg
same,Index LD50/ED100,mice,10.8
"CCCC(CCC)(CCC)NC [Compound 27, N-methyl-1,1-di-n-propyl-n-butylamine]",LD50 at 240 h,in vivo,100 mg/kg
same,Inhibition of the neuroleptic-induced catatonia,[1]; 6 mg/kg,3 (represents 70 to 80% inhibition of catatonia in comparison with the controls (namely a score of 2 or 3 per studied batch))
same,Index LD50/ED100,mice,16.5
"CCCC(CCC)(CCC)NCC [Compound 33, N-ethyl-1,1-di-n-propyl-n-butylamine]",LD50 at 240 h,in vivo,100 mg/kg
same,Inhibition of reserpine-induced catatonia,[2]; 6 mg/kg,2 (represents 50% inhibition of catatonia in comparison with the controls (namely a score of 5 per studied batch))
same,Index LD50/ED100,mice,16.5
"CCCCC(N)(CCCC)CCCC [Compound 12, 1,1-Di-n-butyl-n-pentylamine]",toxicity versus the corresponding trialkylethylamines,[3],more toxic
same,Index LD50/ED20-30,mice,25
same,spasmolytic activity versus the corresponding trialkylethylamines,[4],less spasmolytic
"NC12CC3CC(CC(C3)C1)C2 [Amantadine, 1-amino-adamantane]",dose from which exogenous norepinephrine is potentiated,[5]; cat,≥ 1 mg/kg
same,dose from which ganglioplegic properties are shown,[5]; cat,≥ 5 mg/kg
same,Contractile reaction of the nictitating membrane with electric stimulation,[5]; 0.1 mg/kg,20 mm
same,Contractile reaction of the nictitating membrane without electric stimulation,[5]; 0.1 mg/kg,0 mm
same,Increase in arterial pressure after injection of norepinephrine,[5]; 0.1 mg/kg,29 mm Hg
same,Contractile reaction of the nictitating membrane with electric stimulation,[5]; 1 mg/kg,20 mm
same,Contractile reaction of the nictitating membrane without electric stimulation,[5]; 1 mg/kg,3 mm
same,Increase in arterial pressure after injection of norepinephrine,[5]; 1 mg/kg,35 mm Hg
same,Contractile reaction of the nictitating membrane with electric stimulation,[5]; 3 mg/kg,16 mm
same,Contractile reaction of the nictitating membrane without electric stimulation,[5]; 3 mg/kg,4.4 mm
same,Increase in arterial pressure after injection of norepinephrine,[5]; 3 mg/kg,35 mm Hg
same,Contractile reaction of the nictitating membrane with electric stimulation,[5]; 5 mg/kg,10 mm
same,Contractile reaction of the nictitating membrane without electric stimulation,[5]; 5 mg/kg,5.9 mm
same,Increase in arterial pressure after injection of norepinephrine,[5]; 5 mg/kg,59 mm Hg
same,Contractile reaction of the nictitating membrane with electric stimulation,[5]; 10 mg/kg,4 mm
same,Contractile reaction of the nictitating membrane without electric stimulation,[5]; 10 mg/kg,7.5 mm
same,Increase in arterial pressure after injection of norepinephrine,[5]; 10 mg/kg,57 mm Hg
same,central cholinergic effects score (normal and provoked tremor),"[6]; 40 mg/kg oral, 20, 30 and 40 minutes after tremorine, printed as identical results",4
same,antitremorine properties,"[6]; mice, oral",devoid of antitremorine properties
same,own effect on contractile reactions of the nictitating membrane,[7],stimulates the contractile reactions of the nictitating membrane
same,potentiation of exogenous norepinephrine / peripheral adrenergic effects,[7],potentiates the peripheral adrenergic effects
same,potentiation of the effects of the electric stimulation,[7],does not potentiate
same,effect on the electrocardiogram / cardiac rhythm,electrocardiogram,provokes cardiac arrhythmia due to ventricular extrasystoles
"CC=NC(CCC)(CCC)CCC [Compound 42, N-ethylidene-1,1-di-n-propyl-n-butylamine]",LD50 at 240 h,in vivo,120 mg/kg
same,Index LD50/ED100,mice,20
"CCCC(N)(CC)CC(C)C (stereo not shown) [Compound 3, 1-Ethyl-1-isobutyl-n-butylamine]",Inhibition of the neuroleptic-induced catatonia,[1]; 20 mg/kg,3 (represents 70 to 80% inhibition of catatonia in comparison with the controls (namely a score of 2 or 3 per studied batch))
"CCCC(CCC)(CC(C)C)N(C)C [Compound 37, N,n-dimethyl-1-n-propyl-1-isobutyl-n-butylamine]",LD50 at 240 h,in vivo,110 mg/kg
"CCCC(CCC)(CCC)N1CCOCC1 [Compound 46, N,n-(3-oxyapentamethylene)-1,1-di-n-propyl-n-butylamine]",LD50 at 240 h,in vivo,250 mg/kg
same,Index LD50/ED20-30,mice,31
"CCCC(CCC)(CCC)NCCCO [Compound 45, N-(3-hydroxy-n-propyl)-1,1-di-n-propyl-n-butylamine]",LD50 at 240 h,in vivo,140 mg/kg
same,Inhibition of reserpine-induced catatonia,[2]; 14 mg/kg,2 (represents 50% inhibition of catatonia in comparison with the controls (namely a score of 5 per studied batch))
"C=CCNC(CCC)(CCC)CCC [Compound 35, N-allyl-1,1-di-n-propyl-n-butylamine]",LD50 at 240 h,in vivo,130 mg/kg
same,Inhibition of reserpine-induced catatonia,[2]; 6 mg/kg,2 (represents 50% inhibition of catatonia in comparison with the controls (namely a score of 5 per studied batch))
same,Index LD50/ED100,mice,21
"CCCC(C)(N)CC(C)CC (stereo not shown) [Compound 6, 1,3-Dimethyl-1-n-propyl-n-pentylamine]",Index LD50/ED20-30,mice,> 25
"CCCC(CCC)(CCC)N(C)CC [Compound 38, N-methyl-N-ethyl-1,1-di-n-propyl-n-butylamine]",LD50 at 240 h,in vivo,> 120 mg/kg
same,Inhibition of reserpine-induced catatonia,[2]; 6.5 mg/kg,2 (represents 50% inhibition of catatonia in comparison with the controls (namely a score of 5 per studied batch))
"C#CCN(CC#C)C(CCC)(CCC)CCC [Compound 39, N,n-dipropargyl-1,1-di-n-propyl-n-butylamine]",LD50 at 240 h,in vivo,> 150 mg/kg
same,Inhibition of reserpine-induced catatonia,[2]; 15 mg/kg,2 (represents 50% inhibition of catatonia in comparison with the controls (namely a score of 5 per studied batch))
"CCCC(N)(CC)CCC [Compound 2, 1-Ethyl-1-n-propyl-n-butylamine]",Inhibition of the neuroleptic-induced catatonia,[1]; 5 mg/kg,1 (represents 20 to 30% inhibition of catatonia in comparison with the controls (namely a score of 7 to 8 per studied batch))
same,Index LD50/ED20-30,mice,30
"CCCC(CCC)(CCC)N1CC1 [Compound 40, N,n-ethylene-1,1-di-n-propyl-n-butylamine]",LD50 at 240 h,in vivo,> 150 mg/kg
same,Inhibition of reserpine-induced catatonia,[2]; 6 mg/kg,2 (represents 50% inhibition of catatonia in comparison with the controls (namely a score of 5 per studied batch))
same,Inhibition of the neuroleptic-induced catatonia,[1]; 6 mg/kg,1 (represents 20 to 30% inhibition of catatonia in comparison with the controls (namely a score of 7 to 8 per studied batch))
same,Inhibition of the neuroleptic-induced catatonia,[1]; 12 mg/kg,3 (represents 70 to 80% inhibition of catatonia in comparison with the controls (namely a score of 2 or 3 per studied batch))
same,Index LD50/ED20-30,mice,> 25
"CCCC(N)(CCC)CC(C)C [Compound 5, 1-n-Propyl-1-isobutyl-n-butylamine]",Inhibition of reserpine-induced catatonia,[2]; 20 mg/kg,2 (represents 50% inhibition of catatonia in comparison with the controls (namely a score of 5 per studied batch))
same,activity compared with amantadine (neuroleptic-induced catatonia),[1],five times more active
"CCCC(CCC)(CCC)NC(C)C [Compound 34, N-isopropyl-1,1-di-n-propyl-n-butylamine]",Inhibition of reserpine-induced catatonia,[2]; 6.5 mg/kg,2 (represents 50% inhibition of catatonia in comparison with the controls (namely a score of 5 per studied batch))
same,Index LD50/ED100,mice,21.6
"CCCC(CCC)(NC)C(C)C [Compound 30, N-methyl-1-n-propyl-1-isopropyl-n-butylamine]",LD50 at 240 h,in vivo,> 150 mg/kg
same,Inhibition of the neuroleptic-induced catatonia,[1]; 6 mg/kg,3 (represents 70 to 80% inhibition of catatonia in comparison with the controls (namely a score of 2 or 3 per studied batch))
same,Index LD50/ED100,mice,> 25
"CCCC(CCC)(CCC)N(CCO)CCO [Compound 44, N,n-bis-(2-Hydroxyethyl)-1,1-di-n-propyl-n-butylamine]",Inhibition of the neuroleptic-induced catatonia,[1]; 15 mg/kg,1 (represents 20 to 30% inhibition of catatonia in comparison with the controls (namely a score of 7 to 8 per studied batch))
"CCCC(CCC)(CCC)NCCO [Compound 43, N-(2-hydroxyethyl)-1,1-di-n-propyl-n-butylamine]",LD50 at 240 h,in vivo,150 mg/kg
same,Inhibition of the neuroleptic-induced catatonia,[1]; 6.5 mg/kg,1 (represents 20 to 30% inhibition of catatonia in comparison with the controls (namely a score of 7 to 8 per studied batch))
same,Index LD50/ED20-30,mice,23
"CCCCCC(C)(N)CCC (stereo not shown) [Compound 9, 1-Methyl-1-n-propyl-n-hexylamine]",Index LD50/ED20-30,mice,87
"C=CCC(CCC)(CCC)NC [Compound 32, N-methyl-1-n-propyl-1-alkyl-n-butylamine]",LD50 at 240 h,in vivo,170 mg/kg
same,Inhibition of reserpine-induced catatonia,[2]; 5 mg/kg,2 (represents 50% inhibition of catatonia in comparison with the controls (namely a score of 5 per studied batch))
"C#CCNC(CCC)(CCC)CCC [Compound 36, N-propargyl-1,1-di-n-propyl-n-butylamine]",LD50 at 240 h,in vivo,> 150 mg/kg
same,Index LD50/ED20-30,mice,> 25
